Source: ChEMBL document CHEMBL3507680, “University of Dundee, Gates Library screen for HepG2 cell viability”

Experiment: Human HepG2 cell viability assay in 384 well format
Format: toxicity, cell-based
Parameters: dose 125 nL, time 70.5 hour; cytotoxicity at 70.5 h: concentration not given beside the values
Conditions: HepG2 cells, read-out: Inhibition

| Structure (SMILES) | cytotoxicity at 70.5 h [%] |
| --- | --- |
| CC(NC(=O)NCCN1CCCC1)c1nncn1C (centres undefined) | -8.29 |
| CC(C)SCC(=O)N1CCc2c(nc(N(C)C)nc2N(C)C)C1 | -9.5 |
| Cc1cc(-c2cnc(NC3CCCC3)nc2-c2ccco2)on1 | -6.66 |
| CC(C)c1nnc2n1CCN(C(=O)c1ccc(Cn3cccc3)cc1)C2 | -7.11 |
| Cn1cnc2c1C(COCC1CCOCC1)CN(Cc1ccccn1)C2 (centres undefined) | -15.9 |
| NC(=O)c1cccc(OCCC(=O)NC2CCc3c(F)cccc32)c1 (centres undefined) | -9.97 |
| CC(C(N)=O)N1CCc2onc(-c3cccc(F)c3)c2C1 (centres undefined) | -12.5 |
| CN(CCO)Cc1nnc(C2CCN(C(=O)C(C)(C)C)CC2)n1C | -4.92 |
| Cn1ncc2c(NC3CN4CCC3CC4)nc(-c3ccncc3)nc21 (centres undefined) | 12 |
| CC(CC(=O)N1CCCN(Cc2nccn2C)CC1)n1cccc1 (centres undefined) | -12.4 |
| CC(C(=O)N(C)C)S(=O)(=O)c1cc2c(cc1Cl)OCCO2 (centres undefined) | -6.12 |
| CCn1cc(N)c(-c2nnc3n2CCCC3)n1 | -2.65 |
| CCn1[nH]c(C)c2c(C(F)(F)F)cc(=O)nc1-2 | -4.81 |
| Cc1ccccc1-c1csc2c(=O)[nH]c(N3CCCC(C(=O)O)C3)nc12 (centres undefined) | 14.6 |
| CCc1nc(NS(=O)(=O)c2ccc(C)cc2Cl)no1 | -4.3 |
| c1cncc(OCCCNC2COc3ccccc3C2)c1 (centres undefined) | -3.91 |
| Cc1cc(C(=O)N2CCCC(c3nc(C)no3)C2)on1 (centres undefined) | -10.6 |
| COCCC(C)NS(=O)(=O)c1ccc(C)c(N(C)C)c1 (centres undefined) | -2.25 |
| CNC(=O)[C@H]1C[C@@H]2CN(C(=O)c3cncc(C)c3)C[C@@H]2N1C | -16.6 |
| COc1cc(S(=O)(=O)N2CCc3ccc(Cl)cc32)cc(C(=O)O)c1OC | -8.43 |
| Cc1ccsc1CN(CCCN(C)C)Cc1ccccn1 | -3.09 |
| COc1ccc(CNC(=O)Nc2ccc(N3CCCC3)nc2)cc1O | -2.31 |
| Cc1cccc(C(=O)NCc2ccc(CS(N)(=O)=O)cc2)n1 | -16.5 |

| Structure (SMILES) | cytotoxicity at 70.5 h [%] |
| --- | --- |
| COc1c(C2CCCN2C(=O)c2scnc2C)c(C)nn1C (centres undefined) | -10.9 |
| O=C1NC2(Nc3ncccc31)C(=O)Nc1c2ccc(Cl)c1F (centres undefined) | -6.95 |
| N#Cc1cc(CSCCN2CCOCC2)ccc1F | -13.8 |
| Cc1nc(C)c(C(=O)NCCOc2ccc(C(F)(F)F)cn2)o1 | -3.32 |
| CN1[C@@H](C(=O)NCC2CC2)C[C@@H]2CN(Cc3ccsc3)C[C@@H]21 | 11.3 |
| COC(C)C(=O)N(CC(N)=O)Cc1cccc(Oc2ccccc2)c1 (centres undefined) | -2.39 |
| CC(NC(=O)NCCc1nc(C(F)(F)F)cs1)C(=O)N(C)C (centres undefined) | -7.19 |
| NC1CCCCN(Cc2cc(C3CCCCC3)no2)C1 (centres undefined) | -7.91 |
| COCC(=O)N1CCc2nc(C(=O)N(C)C)sc2CC1 | 27.3 |
| O=C(CN1CC(c2nc(C3CC3)no2)C1)N1CCOCC1 | -17.5 |
| CC(=O)c1ccccc1-c1nc(CC2CCN(C)CC2)no1 | 16.1 |
| Cc1nn(C)cc1S(=O)(=O)N(CCc1ccccc1)Cc1ccn(C)n1 | -4.26 |
| COCc1ccc(CNC(=O)CN2CCc3ccccc32)cc1 | 1.24 |
| O=C(Cn1ccc2ccc(F)cc21)NC[C@@H]1CCCN2CCCC[C@H]12 | 8.28 |
| CCOC(=O)CC1CCCCN1C(=O)c1cc(=O)[nH]c(=O)[nH]1 (centres undefined) | 11.7 |
| CCCc1nc(C(C)(C)NC(=O)C2CC(=O)N(CC(C)C)C2)no1 (centres undefined) | -4.84 |
| COc1ccnc(N2CCN(CC(O)CN3CCOCC3)CC2)n1 (centres undefined) | -8.1 |
| COc1ccc2c(c1)OCC(Cc1ccnc(N)n1)C2 (centres undefined) | 8.07 |
| O=C(c1ccsc1)N1C[C@H]2CN(Cc3cccnc3)C(=O)[C@H]2C1 | 4.1 |
| CCCc1nc(C)cc(NCc2ccc(S(N)(=O)=O)cc2)n1 | -16.8 |
| CCCS(=O)(=O)N1CCN(C(C)(C)CO)CC1 | 15.5 |
| Cc1noc2ncc(C(=O)NCC3CCCO3)cc12 (centres undefined) | -7.11 |
| Cc1nc(C2CCCN(C(=O)COCCc3ccccc3)C2)no1 (centres undefined) | -6.43 |

| Structure (SMILES) | cytotoxicity at 70.5 h [%] |
| --- | --- |
| CC(=O)N1CCN(CCCOc2ccccc2F)CC(C(N)=O)C1 (centres undefined) | -13.8 |
| Cn1ccnc1-c1cnn(CC(=O)Nc2ccnn2C)c1 | -3 |
| CN(CCN1CCOCC1)S(=O)(=O)CC1CCCC1 | -0.906 |
| CCc1c(C(=O)N2CCN(CC(N)=O)CC2)cnn1C(C)(C)C | -2.02 |
| Cc1cccc(-c2nc(CN3CCc4cnc(C)nc4C3)no2)c1 | -21.3 |
| O=C(COCc1ccccc1)N1CCCC(OCc2cccnc2)C1 (centres undefined) | 15.5 |
| CN(CC1(CO)CCCC1)C(=O)c1cc(COc2ccccc2F)[nH]n1 | -6.26 |
| Cc1nnc(N2CCCC3(CN(c4ccccn4)CCO3)C2)o1 (centres undefined) | 1.16 |
| CC(C)NC(=O)N1CCC[C@H]1C(=O)NCCCc1cnn(C)c1 | -4.04 |
| Cc1ccccc1-n1nc(C)c(CN(C)C(C)Cc2ccccn2)c1C (centres undefined) | 0.642 |
| Cc1cc(C(=O)NC2CCN(c3nnc(C)c(C)c3C#N)CC2)no1 | -6.5 |
| CO[C@H]1CN(S(=O)(=O)c2ccc(C)cc2)C[C@@]12CCCO2 | -6.6 |
| Cc1cc(NC(=O)CN2CCCC2c2noc(C)n2)n(C(C)(C)C)n1 (centres undefined) | -7.96 |
| Cc1noc(C)c1CN(C)C(=O)CCn1c(=O)n(C)c2ccccc21 | -12.2 |
| CC(=O)N1CCCC2(C1)CN(C(=O)c1ccncc1)CCO2 (centres undefined) | -15.7 |
| Cc1nc(N2CCCC2)nc(C)c1NS(C)(=O)=O | 0.704 |
| CC(CN1CCOCC1)NC(=O)N1CCN(S(C)(=O)=O)CC1 (centres undefined) | 27.9 |
| CC(C)N1CCCC2(CCN(Cc3noc(C4CCCC4)n3)C2)C1=O (centres undefined) | 11 |
| Cc1cccc(-n2ncc(C(=O)NCC3CCS(=O)(=O)C3)c2C)c1 (centres undefined) | 0.102 |
| CNC(=O)c1cc(C2CCCN2)n[nH]1 (centres undefined) | -3.32 |
| CC(=O)N1CCC(C(=O)NCCc2c[nH]c3cc(C)ccc23)CC1 | 16.1 |
| O=C(c1ccc2nccn2c1)N(CCO)Cc1ccccc1F | 3.35 |
| COc1ccc(-c2nc(CNCCn3cccn3)cs2)cc1 | -5.1 |

| Structure (SMILES) | cytotoxicity at 70.5 h [%] |
| --- | --- |
| Cn1nc2c(cc1=O)CN(Cc1nc(N)c3ccccc3n1)CC2 | 7.46 |
| O=C(CC1CC1)N[C@@H]1CN(C(=O)c2cccs2)C[C@@H]2CCCO[C@@H]21 | -7.28 |
| CN(CCC(O)c1ccccc1)Cc1nc(-c2ccccc2)no1 (centres undefined) | -7.98 |
| O=C(c1cc2cccc(F)c2[nH]1)N1C[C@@H](O)[C@H](N2CCCC2)C1 | -4.92 |
| c1nc(N2CCCC2Cn2cncn2)c2ccsc2n1 (centres undefined) | 30.4 |
| O=C(c1n[nH]cc1Cl)N1CCOC(Cc2cccc(C(F)(F)F)c2)C1 (centres undefined) | -4.63 |
| COc1ccccc1-c1noc(CNc2ccc(F)cc2OCCO)n1 | 9.78 |
| COCc1cn(C2CCN(Cc3ccc(Cl)s3)CC2)nn1 | -12.4 |
| COCCN(Cc1ccc(C)cc1)Cc1nccn1C | -0.21 |
| CN1C(=O)COc2ccc(C(=O)Cn3cnc4ccsc4c3=O)cc21 | 17.1 |
| CCc1cccc2cc(CNCCOC)c(=O)[nH]c12 | 21.7 |
| CN1CCC(c2cncc(-c3cccc(Cl)c3)n2)CC1 | -2.71 |
| Cc1ccc(CN2CC[C@@H]3OCCN(Cc4ccncc4)[C@H]3CC2)s1 | -6.32 |
| COCCn1cnc(-c2nc(C(=O)N3CCOCC3)c3ccccn23)c1 | 5.18 |
| CCCn1cnc2c1CN(C(=O)c1ccc(F)cc1)[C@H](C(=O)OC)C2 | -7.42 |
| CN(C)C(=O)C1CCN(Cn2nc(-c3ccc(F)cc3)oc2=O)CC1 | -5.92 |
| CC1CCCN(C(=O)Nc2cccc(CN3CCOC3=O)c2)C1 (centres undefined) | 35.6 |
| CC(C)C[C@H](N)C(=O)N1CCSc2ccccc2C1 | 0.624 |
| COc1c(C(=O)N2CCC(CSc3ccccc3)C2)c(C)nn1C (centres undefined) | 1.84 |
| COCCN1CCCC2(CCN(c3ncc(Cl)cc3Cl)C2)C1=O (centres undefined) | -11 |
| O=C(NCCNc1ncccn1)C1CC(=O)N(C2CCCC2)C1 (centres undefined) | -6.36 |
| CCc1ccc(CC)c(NCC(=O)N2CCCC(NC(C)=O)C2)c1 (centres undefined) | -6.55 |
| CCCC(=O)N1C[C@@H]2CCN(c3cnccn3)C[C@@H]2C1 | 8.32 |

| Structure (SMILES) | cytotoxicity at 70.5 h [%] |
| --- | --- |
| O=C1COc2ccc(C(=O)N3CCCC(n4ccnc4)C3)cc2N1 (centres undefined) | 2.98 |
| Cc1cnccc1CN1CC[C@H](Oc2cccc(F)c2)[C@@](C)(O)C1 | 0.441 |
| CC(=O)N1CCCN(C(=O)Cc2c(C)nc(C)[nH]c2=O)CC1 | -0.651 |
| CCN(C(=O)c1ccc(-n2ncc(C#N)c2N)cc1)C1CCCC1 | -12.1 |
| Cc1cnc(CCN(C)C(=O)c2cccc(C)c2O)s1 | -5.87 |
| CCC1(CC)Cc2ccccc2-c2nc(CN(C)C)nc(O)c21 | 27.5 |
| CCN(c1ccc(C(=O)N2CCCC(C)C2)cc1)S(=O)(=O)CC (centres undefined) | -4.35 |
| Cc1[nH]ncc1CCCNC(=O)Nc1ccccc1 | 14.5 |
| COc1c(C)cc(S(=O)(=O)NCC2CNCCOC2)cc1C (centres undefined) | 3.62 |
| Clc1ccc(OCCCN2CCN(c3cnccn3)CC2)cc1 | -6.78 |
| CC(=O)N1CCCn2nc(CNC(=O)N3CCCCC3)cc2C1 | 19.2 |
| Cc1nn(C)c(N(C)C)c1CNCCC(=O)NC1CCCC1 | 3.14 |
| CCCc1cc(NCCCC2CCOC2)n2nccc2n1 (centres undefined) | -2.1 |
| c1ccc(CN2CCOC3(CCN(c4ncccn4)CC3)C2)nc1 | 12 |
| CCc1nc(C2CCCN2C(=O)Cc2cccs2)no1 (centres undefined) | -8.42 |
| C[C@@H](N)C(=O)N1CCC(c2[nH]ncc2-c2ccccc2)CC1 | -8.76 |
| Cc1noc(C2CCCN(C(=O)c3cc(Cl)ccc3F)C2)n1 (centres undefined) | -7.27 |
| CCc1cc(NC(=O)C(c2cccc(F)c2)N2CCOCC2)[nH]n1 (centres undefined) | -4.49 |
| CN([C@@H]1CC[C@@H](N2CCCC2)[C@@H]1O)S(=O)(=O)c1ccccc1 | 24.7 |
| CCCS(=O)(=O)N1CCC2(CN(c3ccccc3)C(=O)CN2C)C1 (centres undefined) | -87.7 |
| Cc1cc(C)nc(N2CCC(c3noc(C)n3)CC2)n1 | -7.52 |
| Cn1ccnc1CN1CCCN(C(=O)c2ccc3c(c2)COC3)CC1 | 5.68 |
